Source: the supplement of paper PMC10307832

compound: Cc1cc([C@@H](C)Nc2ccccc2C(=O)O)c2nc(N3CCOCC3)cc(=O)n2c1 [AZD6482] + CC(=O)c1c(C)c2cnc(Nc3ccc(N4CCNCC4)cn3)nc2n(C2CCCC2)c1=O [Palbociclib] (partner 0.5 µM); experiment: relative viability (nuclei count vs DMSO), 5 days (fraction); higher = more cells survive; conditions: first compound 0.8 µM
Method in brief: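 Each reported value is a median over duplicate plates. It expresses relative viability: treated-well nuclei count divided by vehicle-well nuclei count. Lung cancer cell lines in 1536-well plates were dosed by pin tool a day after seeding, alone with one drug or with a fixed anchor-drug dose plus five library-drug doses (not always all listed) in √10 steps, and nuclei were counted after 5 days.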

**Q.** With NCI-H23 as the cell line, how does the relative viability read?
**A.** 0.487

**Q.** NCI-H647 was tested. Which relative viability did it give?
**A.** 0.309

**Q.** CAL-12T was tested. Which relative viability did it give?
**A.** 0.343

**Q.** NCI-H1651 was tested. Which relative viability did it give?
**A.** 0.508

**Q.** How did the relative viability turn out when EPLC-272H was run?
**A.** 0.328

**Q.** Which relative viability does the source give for NCI-H2228 here?
**A.** 0.682

**Q.** How did the relative viability turn out when NCI-H1792 was run?
**A.** 0.648

**Q.** NCI-H1355 was tested. Which relative viability did it give?
**A.** 0.32

**Q.** For NCI-H3122, which relative viability is on record?
**A.** 0.168

**Q.** For NCI-H1437, which relative viability is on record?
**A.** 0.36

**Q.** With NCI-H1755 as the cell line, how does the relative viability read?
**A.** 0.443

**Q.** NCI-H2023 was tested. Which relative viability did it give?
**A.** 0.405

**Q.** For HCC-15, which relative viability is on record?
**A.** 0.77

**Q.** NCI-H1793 was tested. Which relative viability did it give?
**A.** 0.271

**Q.** For PC-14, which relative viability is on record?
**A.** 0.578

**Q.** Which relative viability does the source give for EKVX here?
**A.** 0.342

**Q.** How did the relative viability turn out when LC-2-ad was run?
**A.** 0.537

**Q.** NCI-H1944 was tested. Which relative viability did it give?
**A.** 0.295

**Q.** NCI-H1975 was tested. Which relative viability did it give?
**A.** 0.623

**Q.** Which relative viability does the source give for RERF-LC-KJ here?
**A.** 1.03

**Q.** Which relative viability does the source give for ABC-1 here?
**A.** 0.664

**Q.** Which relative viability does the source give for NCI-H358 here?
**A.** 0.134

**Q.** With NCI-H650 as the cell line, how does the relative viability read?
**A.** 0.276

**Q.** For PC-3 [JPC-3], which relative viability is on record?
**A.** 0.528

same assay, conditions: first compound 2.53 µM

**Q.** HCC-44 was tested. Which relative viability did it give?
**A.** 1.05

**Q.** NCI-H522 was tested. Which relative viability did it give?
**A.** 0.805

**Q.** LU99A was tested. Which relative viability did it give?
**A.** 0.353

**Q.** With BEN as the cell line, how does the relative viability read?
**A.** 0.449

**Q.** With HARA as the cell line, how does the relative viability read?
**A.** 0.247

**Q.** Which relative viability does the source give for SW 900 here?
**A.** 0.355

**Q.** Which relative viability does the source give for HCC-78 here?
**A.** 0.378

**Q.** NCI-H322M was tested. Which relative viability did it give?
**A.** 0.424

**Q.** NCI-H2009 was tested. Which relative viability did it give?
**A.** 0.124

**Q.** With A-427 as the cell line, how does the relative viability read?
**A.** 0.502

**Q.** Which relative viability does the source give for NCI-H661 here?
**A.** 0.387

**Q.** NCI-H1734 was tested. Which relative viability did it give?
**A.** 0.298

**Q.** Which relative viability does the source give for NCI-H460 here?
**A.** 0.135

**Q.** For NCI-H2347, which relative viability is on record?
**A.** 0.394

**Q.** Which relative viability does the source give for SK-LU-1 here?
**A.** 0.315

**Q.** NCI-H1395 was tested. Which relative viability did it give?
**A.** 0.401

**Q.** Which relative viability does the source give for 201T here?
**A.** 0.326

**Q.** With NCI-H1915 as the cell line, how does the relative viability read?
**A.** 0.49

**Q.** With HCC-827 as the cell line, how does the relative viability read?
**A.** 0.378

**Q.** Which relative viability does the source give for LXF-289 here?
**A.** 0.631

**Q.** For NCI-H23, which relative viability is on record?
**A.** 0.396

**Q.** With NCI-H647 as the cell line, how does the relative viability read?
**A.** 0.241

**Q.** CAL-12T was tested. Which relative viability did it give?
**A.** 0.518

**Q.** Which relative viability does the source give for NCI-H1651 here?
**A.** 0.486

**Q.** For EPLC-272H, which relative viability is on record?
**A.** 0.332

**Q.** NCI-H2228 was tested. Which relative viability did it give?
**A.** 0.653

**Q.** NCI-H1792 was tested. Which relative viability did it give?
**A.** 0.561

**Q.** With NCI-H1355 as the cell line, how does the relative viability read?
**A.** 0.279

**Q.** NCI-H3122 was tested. Which relative viability did it give?
**A.** 0.155

**Q.** With NCI-H1437 as the cell line, how does the relative viability read?
**A.** 0.316

**Q.** NCI-H1755 was tested. Which relative viability did it give?
**A.** 0.444

**Q.** NCI-H2023 was tested. Which relative viability did it give?
**A.** 0.277

**Q.** HCC-15 was tested. Which relative viability did it give?
**A.** 0.676

**Q.** For NCI-H1793, which relative viability is on record?
**A.** 0.215

**Q.** For PC-14, which relative viability is on record?
**A.** 0.503

**Q.** With EKVX as the cell line, how does the relative viability read?
**A.** 0.279

**Q.** For LC-2-ad, which relative viability is on record?
**A.** 0.521

**Q.** NCI-H1944 was tested. Which relative viability did it give?
**A.** 0.285

**Q.** For NCI-H1975, which relative viability is on record?
**A.** 0.562

**Q.** With RERF-LC-KJ as the cell line, how does the relative viability read?
**A.** 0.838

**Q.** ABC-1 was tested. Which relative viability did it give?
**A.** 0.662

**Q.** How did the relative viability turn out when NCI-H358 was run?
**A.** 0.127

**Q.** Which relative viability does the source give for NCI-H650 here?
**A.** 0.237

**Q.** PC-3 [JPC-3] was tested. Which relative viability did it give?
**A.** 0.572

same assay, conditions: first compound 8 µM

**Q.** With HCC-44 as the cell line, how does the relative viability read?
**A.** 1.26

**Q.** NCI-H522 was tested. Which relative viability did it give?
**A.** 0.825

**Q.** With LU99A as the cell line, how does the relative viability read?
**A.** 0.311

**Q.** For BEN, which relative viability is on record?
**A.** 0.466

**Q.** Which relative viability does the source give for HARA here?
**A.** 0.171

**Q.** Which relative viability does the source give for SW 900 here?
**A.** 0.389

**Q.** How did the relative viability turn out when HCC-78 was run?
**A.** 0.427

**Q.** NCI-H322M was tested. Which relative viability did it give?
**A.** 0.39

**Q.** With LCLC-97TM1 as the cell line, how does the relative viability read?
**A.** 0.172

**Q.** NCI-H2009 was tested. Which relative viability did it give?
**A.** 0.119

**Q.** Which relative viability does the source give for A-427 here?
**A.** 0.553

**Q.** For NCI-H441, which relative viability is on record?
**A.** 0.182

**Q.** With NCI-H661 as the cell line, how does the relative viability read?
**A.** 0.364

**Q.** With NCI-H1734 as the cell line, how does the relative viability read?
**A.** 0.272

**Q.** Which relative viability does the source give for NCI-H460 here?
**A.** 0.129

**Q.** For NCI-H2347, which relative viability is on record?
**A.** 0.389

**Q.** How did the relative viability turn out when SK-LU-1 was run?
**A.** 0.387

**Q.** NCI-H1395 was tested. Which relative viability did it give?
**A.** 0.456

**Q.** With 201T as the cell line, how does the relative viability read?
**A.** 0.347

**Q.** Which relative viability does the source give for NCI-H1915 here?
**A.** 0.521

**Q.** Which relative viability does the source give for HCC-827 here?
**A.** 0.229

**Q.** Which relative viability does the source give for LXF-289 here?
**A.** 0.55

**Q.** For NCI-H23, which relative viability is on record?
**A.** 0.325

**Q.** NCI-H647 was tested. Which relative viability did it give?
**A.** 0.195

**Q.** CAL-12T was tested. Which relative viability did it give?
**A.** 0.286

**Q.** With NCI-H1651 as the cell line, how does the relative viability read?
**A.** 0.496

**Q.** For EPLC-272H, which relative viability is on record?
**A.** 0.244

**Q.** For NCI-H2228, which relative viability is on record?
**A.** 0.679

**Q.** With NCI-H1792 as the cell line, how does the relative viability read?
**A.** 0.512

**Q.** NCI-H1355 was tested. Which relative viability did it give?
**A.** 0.286

**Q.** With NCI-H3122 as the cell line, how does the relative viability read?
**A.** 0.154

**Q.** How did the relative viability turn out when NCI-H1437 was run?
**A.** 0.24

**Q.** With NCI-H1755 as the cell line, how does the relative viability read?
**A.** 0.379

**Q.** NCI-H2023 was tested. Which relative viability did it give?
**A.** 0.226

**Q.** With HCC-15 as the cell line, how does the relative viability read?
**A.** 0.633

**Q.** For NCI-H1793, which relative viability is on record?
**A.** 0.225

**Q.** For PC-14, which relative viability is on record?
**A.** 0.519

**Q.** Which relative viability does the source give for EKVX here?
**A.** 0.298

**Q.** With LC-2-ad as the cell line, how does the relative viability read?
**A.** 0.399

**Q.** Which relative viability does the source give for NCI-H1944 here?
**A.** 0.211

**Q.** NCI-H1975 was tested. Which relative viability did it give?
**A.** 0.421

**Q.** With RERF-LC-KJ as the cell line, how does the relative viability read?
**A.** 0.808

**Q.** With ABC-1 as the cell line, how does the relative viability read?
**A.** 0.544

**Q.** How did the relative viability turn out when NCI-H358 was run?
**A.** 0.115

**Q.** NCI-H650 was tested. Which relative viability did it give?
**A.** 0.271

**Q.** With PC-3 [JPC-3] as the cell line, how does the relative viability read?
**A.** 0.534
